Data from ChEMBL document CHEMBL2346614, “Discovery of thienopyrimidine-based inhibitors of the human farnesyl pyrophosphate synthase--parallel synthesis of analogs via a trimethylsilyl ylidene intermediate” (Bioorg Med Chem, 2013).

How the values were obtained:
[1] = biological target: T1, Farnesyl pyrophosphate synthase (Homo sapiens) (UniProt P14324); assay: Inhibition of human recombinant N-terminal His6-tagged FPPS transfected in Escherichia coli BL21 (DE3) cells using GPP and [3H]-IPP as substrate at 10 uM incubated for 10 mins prior to substrate addition measured after 20 mins by liquid scintillation counting analysis; assay type: biochemical
T1 sequence (whole entry): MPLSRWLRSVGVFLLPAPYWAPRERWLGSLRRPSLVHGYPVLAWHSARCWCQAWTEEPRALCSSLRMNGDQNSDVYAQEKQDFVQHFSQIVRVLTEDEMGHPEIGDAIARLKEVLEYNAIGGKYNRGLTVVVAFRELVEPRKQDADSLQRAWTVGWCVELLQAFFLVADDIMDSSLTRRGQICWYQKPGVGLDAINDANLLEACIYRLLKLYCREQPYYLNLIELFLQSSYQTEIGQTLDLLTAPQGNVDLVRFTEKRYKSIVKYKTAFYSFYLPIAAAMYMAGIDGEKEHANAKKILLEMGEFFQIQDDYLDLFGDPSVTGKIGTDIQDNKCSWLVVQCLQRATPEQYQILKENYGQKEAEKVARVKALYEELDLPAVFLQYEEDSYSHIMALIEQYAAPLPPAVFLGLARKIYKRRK

[2] = biological target: T2, Farnesyl pyrophosphate synthase (Homo sapiens, UniProt P14324); assay: Inhibition of human recombinant N-terminal His6-tagged FPPS transfected in Escherichia coli BL21 (DE3) cells using GPP and [3H]-IPP as substrate incubated for 10 mins prior to substrate addition measured after 20 mins by liquid scintillation counting analysis
T2 sequence (P14324 whole entry): T1 sequence (whole entry)

[3] = biological target: T2, Farnesyl pyrophosphate synthase; assay: Inhibition of human FPPS

inhibition [1] [%]	SMILES	other results
75	O=P(O)(O)C(Nc1ncnc2sc(-c3ccccc3)cc12)P(=O)(O)O	–
–	O=P(O)(O)C(Nc1ncnc2sc(-c3ccc4ccccc4c3)cc12)P(=O)(O)O	IC50 [2]: 250 nM
75	O=P(O)(O)C(Nc1nc(-c2ccccc2)nc2sccc12)P(=O)(O)O	–
75	O=P(O)(O)C(Nc1ncnc2sccc12)P(=O)(O)O	–
–	CC(C)=CCC/C(C)=C/CC(C/C=C(\C)CCC=C(C)C)(P(=O)(O)O)P(=O)(O)O [DIGERANYL BISPHOSPHONATE]	IC50 [3]: > 10000 nM
–	Cc1ccc(-c2cc3c(NC(P(=O)(O)O)P(=O)(O)O)ncnc3s2)cc1	IC50 [2]: 390 nM
< 20	O=P(O)(O)C(Nc1ncnc2scc(-c3ccccc3)c12)P(=O)(O)O	–
